Laboratory results reported in ChEMBL document CHEMBL1201862, “PubChem BioAssay data set” (2004).
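Five concentrations, 48 hours, 96-well plates. GI50 is the concentration that inhibits growth by half.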 The source made the active and inactive calls. No stated cut-off is given here; in the data, active = GI50 up to about 1.1 µM and inactive = higher.

Assays:
Assay in all cases: growth of human tumour cells (NCI), 48 h
SN12C = system: SN12C
KM-20L2 = system: KM-20L2
UO-31 = system: UO-31
HL-60 = system: HL-60
SK-MEL-2 = system: SK-MEL-2
SF-268 = system: SF-268
IGROV-1 = system: IGROV-1
SK-MEL-28 = system: SK-MEL-28
SR = system: SR
SW-620 = system: SW-620
HCT-15 = system: HCT-15
A549 = system: A549
CAKI-1 = system: CAKI-1
786-0 = system: 786-0
SNB-19 = system: SNB-19
NCI-H226 = system: NCI-H226
SK-MEL-5 = system: SK-MEL-5
A498 = system: A498

Compound: CCC12C=CCN3CCC4(C(=C(C(=O)OC)[C@@H]1O)Nc1ccccc14)C32 (some centres not stated)
- GI50 (SN12C): 2.3 µM (inactive)
- GI50 (KM-20L2): 1.84 µM (inactive)
- GI50 (UO-31): 2.4 µM (inactive)
- GI50 (HL-60): 2 µM (inactive)
- GI50 (SK-MEL-2): 1.9 µM (inactive)
- GI50 (SF-268): 2.29 µM (inactive)
- GI50 (IGROV-1): 1.83 µM (inactive)
- GI50 (SK-MEL-28): 1.95 µM (inactive)
- GI50 (SR): 1.78 µM (inactive)
- GI50 (SW-620): 1.72 µM (inactive)
- GI50 (HCT-15): 1.57 µM
- GI50 (A549): 2.09 µM (inactive)
- GI50 (CAKI-1): 2.29 µM (inactive)
- GI50 (786-0): 1.64 µM (inactive)
- GI50 (SNB-19): 1.91 µM (inactive)
- GI50 (NCI-H226): 1.26 µM (inactive)
- GI50 (SK-MEL-5): 1.79 µM (inactive)
- GI50 (A498): 1.96 µM (inactive)

Compound: C=CCN1/C(=C2\SC(=S)N(c3ccc(C)cc3)C2=O)Sc2c1ncn(C)c2=O
- GI50 (SN12C): > 100 µM (inactive)
- GI50 (KM-20L2): > 100 µM (inactive)
- GI50 (UO-31): > 100 µM (inactive)
- GI50 (HL-60): 83.4 µM (inactive)
- GI50 (SK-MEL-2): > 100 µM (inactive)
- GI50 (SF-268): > 100 µM (inactive)
- GI50 (IGROV-1): > 100 µM (inactive)
- GI50 (SR): 84.7 µM (inactive)
- GI50 (SW-620): > 100 µM (inactive)
- GI50 (HCT-15): > 100 µM
- GI50 (A549): > 100 µM (inactive)
- GI50 (CAKI-1): > 100 µM (inactive)
- GI50 (786-0): 71.1 µM (inactive)
- GI50 (SNB-19): > 100 µM (inactive)
- GI50 (NCI-H226): 78.5 µM (inactive)
- GI50 (SK-MEL-5): 38.4 µM (inactive)
- GI50 (A498): 51.1 µM (inactive)

Compound: C(CCC[Te][Te]CCCCCCOC1CCCCO1)CCOC1CCCCO1 (configuration not stated)
- GI50 (SN12C): 13.7 µM (inactive)
- GI50 (KM-20L2): 14.7 µM (inactive)
- GI50 (UO-31): 19.8 µM (inactive)
- GI50 (HL-60): 8.69 µM (inactive)
- GI50 (SK-MEL-2): 13.3 µM (inactive)
- GI50 (SF-268): 16.6 µM (inactive)
- GI50 (IGROV-1): 16.5 µM (inactive)
- GI50 (SK-MEL-28): 14.1 µM (inactive)
- GI50 (SR): 7.64 µM (inactive)
- GI50 (SW-620): 18.2 µM (inactive)
- GI50 (HCT-15): 19.2 µM
- GI50 (A549): 14.5 µM (inactive)
- GI50 (CAKI-1): 12.6 µM (inactive)
- GI50 (786-0): 15.5 µM (inactive)
- GI50 (SNB-19): 14.4 µM (inactive)
- GI50 (A498): 17.6 µM (inactive)

Compound: CCOC(=O)Cc1nc(/C(C#N)=C/c2ccco2)[nH]c(=O)c1C#N
- GI50 (SN12C): > 100 µM (inactive)
- GI50 (KM-20L2): > 100 µM (inactive)
- GI50 (UO-31): > 100 µM (inactive)
- GI50 (HL-60): 95.3 µM (inactive)
- GI50 (SK-MEL-2): > 100 µM (inactive)
- GI50 (IGROV-1): > 100 µM (inactive)
- GI50 (SR): 97.1 µM (inactive)
- GI50 (SW-620): > 100 µM (inactive)
- GI50 (HCT-15): > 100 µM
- GI50 (A549): > 100 µM (inactive)
- GI50 (CAKI-1): > 100 µM (inactive)
- GI50 (786-0): > 100 µM (inactive)
- GI50 (SNB-19): > 100 µM (inactive)
- GI50 (NCI-H226): > 100 µM (inactive)
- GI50 (SK-MEL-5): > 100 µM (inactive)

Compound: O=C1C(c2ccccc2)=C(c2ccccc2)C(c2ccc(Sc3ccc(C4=C(c5ccccc5)C(=O)C(c5ccccc5)=C4c4ccccc4)cc3)cc2)=C1c1ccccc1
- GI50 (SN12C): > 100 µM (inactive)
- GI50 (KM-20L2): > 100 µM (inactive)
- GI50 (UO-31): > 100 µM (inactive)
- GI50 (HL-60): > 100 µM (inactive)
- GI50 (SK-MEL-2): > 100 µM (inactive)
- GI50 (SF-268): > 100 µM (inactive)
- GI50 (IGROV-1): > 100 µM (inactive)
- GI50 (SR): > 100 µM (inactive)
- GI50 (SW-620): > 100 µM (inactive)
- GI50 (HCT-15): > 100 µM
- GI50 (A549): > 100 µM (inactive)
- GI50 (CAKI-1): > 100 µM (inactive)
- GI50 (786-0): > 100 µM (inactive)
- GI50 (SNB-19): > 100 µM (inactive)
- GI50 (NCI-H226): > 100 µM (inactive)
- GI50 (SK-MEL-5): > 100 µM (inactive)
- GI50 (A498): > 100 µM (inactive)

Compound: C/C(=N/N(C=O)C[n+]1ccccc1)C(CN(CC(C)C)CC(C)C)C(=O)Nc1ccc(C)cc1C (configuration not stated)
- GI50 (SN12C): > 100 µM (inactive)
- GI50 (KM-20L2): > 100 µM (inactive)
- GI50 (UO-31): 25.8 µM (inactive)
- GI50 (HL-60): 73.1 µM (inactive)
- GI50 (SK-MEL-2): > 100 µM (inactive)
- GI50 (SF-268): 43 µM (inactive)
- GI50 (IGROV-1): > 100 µM (inactive)
- GI50 (SK-MEL-28): > 100 µM (inactive)
- GI50 (SR): 84.1 µM (inactive)
- GI50 (SW-620): > 100 µM (inactive)
- GI50 (A549): > 100 µM (inactive)
- GI50 (CAKI-1): 55.1 µM (inactive)
- GI50 (786-0): > 100 µM (inactive)
- GI50 (SNB-19): 67.9 µM (inactive)
- GI50 (SK-MEL-5): 57.1 µM (inactive)
- GI50 (A498): 33.1 µM (inactive)

Compound: O=c1[nH]c2ccccc2cc1C(Cl)=C(Cl)Cl
- GI50 (SN12C): > 100 µM (inactive)
- GI50 (KM-20L2): > 100 µM (inactive)
- GI50 (UO-31): > 100 µM (inactive)
- GI50 (HL-60): 53.7 µM (inactive)
- GI50 (SK-MEL-2): > 100 µM (inactive)
- GI50 (SF-268): > 100 µM (inactive)
- GI50 (IGROV-1): > 100 µM (inactive)
- GI50 (SK-MEL-28): > 100 µM (inactive)
- GI50 (SR): > 100 µM (inactive)
- GI50 (SW-620): > 100 µM (inactive)
- GI50 (A549): > 100 µM (inactive)
- GI50 (CAKI-1): > 100 µM (inactive)
- GI50 (786-0): > 100 µM (inactive)
- GI50 (SNB-19): > 100 µM (inactive)
- GI50 (NCI-H226): > 100 µM (inactive)
- GI50 (A498): > 100 µM (inactive)

Compound: CCN(CC)CCOc1ccc(CCc2cc(OC)c(OC)c(OC)c2)cc1
- GI50 (SN12C): > 100 µM (inactive)
- GI50 (KM-20L2): 31.9 µM (inactive)
- GI50 (UO-31): 28.2 µM (inactive)
- GI50 (HL-60): 18.9 µM (inactive)
- GI50 (SF-268): > 100 µM (inactive)
- GI50 (IGROV-1): > 100 µM (inactive)
- GI50 (SK-MEL-28): 78 µM (inactive)
- GI50 (SR): 31.3 µM (inactive)
- GI50 (SW-620): 18.4 µM (inactive)
- GI50 (HCT-15): 30.7 µM
- GI50 (A549): 47.3 µM (inactive)
- GI50 (CAKI-1): 53.2 µM (inactive)
- GI50 (786-0): 37.1 µM (inactive)
- GI50 (SNB-19): > 100 µM (inactive)
- GI50 (NCI-H226): 45 µM (inactive)
- GI50 (SK-MEL-5): 15.6 µM (inactive)
- GI50 (A498): 22 µM (inactive)
